Tested on: 616215-338-R-J1-PDC spheroids with HUVEC/MSC, viability
Assay: Anticancer human tumor 616215-338-R-J1-PDC patient-derived colon adenocarcinoma cell line growth inhibition [PI3K]
Conditions: for IC50: curve of first compound; for viability, T/C: stronger effect = lower value
In short: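 Combination activity was assessed by viability in multicellular tumor spheroids carrying HUVEC and MSC components. Agents were tested with PI3K inhibitors from a Cmax-based top dose (or 10 microM) downward in half-log increments.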
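Also: spheroids exposed to agents for seven days before the viability read.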

CC(C)NCC(C(=O)N1CCN(c2ncnc3c2C(C)CC3O)CC1)c1ccc(Cl)cc1 (configuration not stated) + Cc1nc(NC(=O)N2CCCC2C(N)=O)sc1-c1ccnc(C(C)(C)C(F)(F)F)c1
IC50 (second compound 0.0316 µM): 8.82 µM | IC50 (second compound 0.1 µM): 8.31 µM | IC50 (second compound 0.316 µM): 7.19 µM | IC50 (second compound 1 µM): 7.82 µM | IC50 (second compound 3.16 µM): 7.42 µM | IC50 (second compound 10 µM): 4.35 µM | viability, T/C (second compound 0.0316 µM, first compound 0.0316 µM): 97.2% | viability, T/C (second compound 0.0316 µM, first compound 0.1 µM): 91.6% | viability, T/C (second compound 0.0316 µM, first compound 0.316 µM): 91.8% | viability, T/C (second compound 0.0316 µM, first compound 1 µM): 98.3% | viability, T/C (second compound 0.0316 µM, first compound 3.16 µM): 91.8% | viability, T/C (second compound 0.0316 µM, first compound 10 µM): 44.9% | viability, T/C (second compound 0.1 µM, first compound 0.0316 µM): 89.5% | viability, T/C (second compound 0.1 µM, first compound 0.1 µM): 87.4% | viability, T/C (second compound 0.1 µM, first compound 0.316 µM): 92.8% | viability, T/C (second compound 0.1 µM, first compound 1 µM): 105% | viability, T/C (second compound 0.1 µM, first compound 3.16 µM): 90.1% | viability, T/C (second compound 0.1 µM, first compound 10 µM): 42% | viability, T/C (second compound 0.316 µM, first compound 0.0316 µM): 103% | viability, T/C (second compound 0.316 µM, first compound 0.1 µM): 92.9% | viability, T/C (second compound 0.316 µM, first compound 0.316 µM): 98.7% | viability, T/C (second compound 0.316 µM, first compound 1 µM): 104% | viability, T/C (second compound 0.316 µM, first compound 3.16 µM): 70.8% | viability, T/C (second compound 0.316 µM, first compound 10 µM): 41.6% | viability, T/C (second compound 1 µM, first compound 0.0316 µM): 98.9% | viability, T/C (second compound 1 µM, first compound 0.1 µM): 97.6% | viability, T/C (second compound 1 µM, first compound 0.316 µM): 95.6% | viability, T/C (second compound 1 µM, first compound 1 µM): 101% | viability, T/C (second compound 1 µM, first compound 3.16 µM): 84.9% | viability, T/C (second compound 1 µM, first compound 10 µM): 39.8% | viability, T/C (second compound 3.16 µM, first compound 0.0316 µM): 111% | viability, T/C (second compound 3.16 µM, first compound 0.1 µM): 101% | viability, T/C (second compound 3.16 µM, first compound 0.316 µM): 102% | viability, T/C (second compound 3.16 µM, first compound 1 µM): 90.4% | viability, T/C (second compound 3.16 µM, first compound 3.16 µM): 71.4% | viability, T/C (second compound 3.16 µM, first compound 10 µM): 42.2% | viability, T/C (second compound 10 µM, first compound 0.0316 µM): 96% | viability, T/C (second compound 10 µM, first compound 0.1 µM): 95.3% | viability, T/C (second compound 10 µM, first compound 0.316 µM): 91.6% | viability, T/C (second compound 10 µM, first compound 1 µM): 79.2% | viability, T/C (second compound 10 µM, first compound 3.16 µM): 57.8% | viability, T/C (second compound 10 µM, first compound 10 µM): 30.3%
